# Data taken from ChEMBL document CHEMBL3871268, “Chalcogen containing heterocyclic scaffolds: New hybrids with antitumoral activity” (Eur J Med Chem, 2016).
# Residues, ends and D or L forms follow the SMILES beside them. *: point of attachment. Cbz = O=C(OCc1ccccc1)*; CH2F = FC*
# Columns and labels:
# [1] = Cell cycle analysis in human MCF7 cells assessed as accumulation at SubG1 phase at 6 uM measured after 24 hrs by propidium iodide staining-based flow cytometry (reference value: 2.6%); format: functional
# [2] = Cell cycle analysis in human MCF7 cells assessed as accumulation at G2/M phase at 6 uM measured after 24 hrs by propidium iodide staining-based flow cytometry (reference value: 8.9%); format: functional
# [3] = Cell cycle analysis in human MCF7 cells assessed as accumulation at S phase at 6 uM measured after 24 hrs by propidium iodide staining-based flow cytometry (reference value: 15.3%); format: functional
# [4] = Cell cycle analysis in human MCF7 cells assessed as accumulation at G0/G1 phase at 6 uM measured after 24 hrs by propidium iodide staining-based flow cytometry (reference value: 73.6%); format: functional
# [5] = Cytotoxicity against human PC3 cells assessed as reduction in cell viability measured after 72 hrs by MTT assay; format: functional; conditions: PC-3, 72 h
# [6] = Cytotoxicity against human MCF7 cells assessed as reduction in cell viability measured after 72 hrs by MTT assay; format: functional; conditions: MCF7, 72 h
# [7] = system: MCF7; assay: Selectivity index, ratio of GI50 for human 184B5 cells to GI50 for human MCF7 cells; format: functional
# [8] = Cytotoxicity against human 184B5 cells assessed as reduction in cell viability measured after 72 hrs by MTT assay; format: toxicity, cell-based; conditions: for GI50 at 72 h: 184B5 cells; for LC50 / TGI: 184b5, 72 h
# [9] = Cell cycle arrest in human MCF7 cells assessed as M1 quadrant cells at 50 uM pretreated with pan-caspase inhibitor Z-VAD-FMK for 1 hr followed by compound addition measured after 48 hrs by propidium iodide staining-based flow cytometry assay (reference value: 98.1%); format: functional; design: scale not given: the % may be the effect or the level left
# [10] = Cell cycle arrest in human MCF7 cells assessed as sub-diploid cells at 50 uM pretreated with pan-caspase inhibitor Z-VAD-FMK for 1 hr followed by compound addition measured after 48 hrs by propidium iodide staining-based flow cytometry assay (reference value: 1.9%); format: functional; design: scale not given: the % may be the effect or the level left
SMILES,Activity [1] [%],Activity [2] [%],Activity [3] [%],Activity [4] [%],GI50 [5] [µM],LC50 (concentration lethal to 50% of cells) [5] [µM],TGI [5] [µM],GI50 [6] [µM],LC50 [6] [µM],TGI [6] [µM],RatioGI50 [7],GI50 at 72 h [8] [µM],LC50 [8] [µM],TGI [8] [µM],Activity [9] [%],Activity [10] [%]
CC[C@@]1(O)C(=O)OCc2c1cc1n(c2=O)Cc2cc3ccccc3nc2-1,4.4,25.8,16.3,54.6,–,–,–,–,–,–,–,–,–,–,–,–
N#CSCc1ccc(-n2cccc2)cc1,–,–,–,–,14.1,88.1,60.3,8.2,> 100,36.9,1.6,12.9,> 100,23.5,–,–
[SeH]c1nc2ccccc2s1,–,–,–,–,> 50,> 50,> 50,> 50,> 50,> 50,–,–,–,–,–,–
N#CSCN1C(=O)c2ccccc2C1=O,–,–,–,–,> 100,> 100,> 100,48.1,> 100,> 100,–,–,–,–,–,–
O=C1c2ccccc2C(=O)N1C[SeH],–,–,–,–,6.4,16.9,9.4,6,12.5,8.2,2.1,12.7,21.9,17.4,–,–
N#CSc1nccc(Cl)n1,–,–,–,–,> 100,> 100,> 100,35,> 100,> 100,–,–,–,–,–,–
N#C[Se]Cc1c2ccccc2nc2ccccc12,–,–,–,–,16.6,40,28.3,40.1,44.5,67.6,–,–,–,–,–,–
N#C[Se]CN1C(=O)c2ccccc2C1=O,–,–,–,–,11.2,56.7,32.1,15.4,93.4,56.1,–,–,–,–,–,–
O=C1c2ccccc2C(=O)N1CS,–,–,–,–,74.7,> 100,> 100,> 100,> 100,> 100,–,–,–,–,–,–
SCc1cc2c(cc1Br)OCO2,–,–,–,–,87.5,> 100,> 100,3.2,> 100,> 100,>37,> 100,> 100,> 100,–,–
N#CSc1nc2ccccc2s1,–,–,–,–,42,85.5,66.3,40.1,87.7,67.6,–,–,–,–,–,–
[SeH]Cc1c2ccccc2nc2ccccc12,–,–,–,–,83.2,> 100,> 100,39.1,> 100,> 100,–,–,–,–,–,–
Sc1ccc2ccccc2n1,–,–,–,–,85.3,> 100,> 100,> 100,> 100,> 100,–,–,–,–,–,–
[SeH]c1ccnc([SeH])n1,–,–,–,–,9.8,51.3,28.3,6.7,75.4,40,1.6,10.7,63.7,35.3,–,–
C[Se]c1nc2ccccc2s1,–,–,–,–,> 100,> 100,> 100,7.2,> 100,> 100,>13.9,> 100,> 100,> 100,–,–
N#C[Se]Cc1cc2c(cc1Br)OCO2,–,–,–,–,24,> 100,45.7,66.9,> 100,> 100,–,–,–,–,–,–
C[Se]c1ccc2ccccc2n1,–,–,–,–,83.6,> 100,> 100,21,> 100,> 100,–,–,–,–,–,–
CSc1nc2ccccc2s1,–,–,–,–,39.6,–,–,–,–,–,–,–,–,–,–,–
Cc1noc(C)c1C[Se]C#N,–,–,–,–,5.6,17.6,10.3,2.2,24.5,8.3,<1,2,22.8,4,–,–
CSc1ccc2ccccc2n1,–,–,–,–,87,> 100,> 100,> 100,> 100,> 100,–,> 100,> 100,> 100,–,–
N#CSCc1cc2c(cc1Br)OCO2,–,–,–,–,23.8,74.2,41.8,6.7,> 100,> 100,>14.9,> 100,> 100,> 100,–,–
C[Se](=O)O,–,–,–,–,2.5,37.1,8.4,1.3,> 100,3.4,1.4,1.8,> 100,3.8,–,–
N#CSCc1c2ccccc2nc2ccccc12,–,–,–,–,1.5,28.3,2.4,0.9,34.4,17.5,16,14.4,38.5,26.4,–,–
CSc1ccnc(SC)n1,–,–,–,–,77.5,> 100,> 100,> 100,> 100,> 100,–,–,–,–,–,–
CC(C)[C@H](NC(=O)OCc1ccccc1)C(=O)N[C@@H](C)C(=O)N[C@@H](CC(=O)O)C(=O)CF (Cbz-Val-Ala-Asp-CH2F),–,–,–,–,–,–,–,–,–,–,–,–,–,–,96.1,3.9
Sc1ccnc(S)n1,–,–,–,–,82.5,> 100,> 100,> 100,> 100,> 100,–,–,–,–,–,–
Sc1nc2ccccc2s1 [2-MERCAPTOBENZOTHIAZOLE],–,–,–,–,84.9,–,> 100,> 100,–,> 100,–,–,–,–,–,–
[SeH]Cc1cc2c(cc1Br)OCO2,–,–,–,–,34.6,> 50,> 50,22.2,> 50,> 50,–,–,–,–,–,–
